Assay results published in ChEMBL document CHEMBL4507258 (2021).

Experiments:
[1] = target: Serine/threonine-protein kinase WNK4 (Homo sapiens) (UniProt Q96J92); details: Compound concentration 1000.0 nM
[2] = target: cAMP-dependent protein kinase catalytic subunit beta (Homo sapiens) (UniProt P22694); details: Compound concentration 1000.0 nM
[3] = target: T1, 5-hydroxytryptamine receptor 3A (Homo sapiens) (UniProt P46098); details: Compound concentration 10.0 uM
T1 sequence (whole entry): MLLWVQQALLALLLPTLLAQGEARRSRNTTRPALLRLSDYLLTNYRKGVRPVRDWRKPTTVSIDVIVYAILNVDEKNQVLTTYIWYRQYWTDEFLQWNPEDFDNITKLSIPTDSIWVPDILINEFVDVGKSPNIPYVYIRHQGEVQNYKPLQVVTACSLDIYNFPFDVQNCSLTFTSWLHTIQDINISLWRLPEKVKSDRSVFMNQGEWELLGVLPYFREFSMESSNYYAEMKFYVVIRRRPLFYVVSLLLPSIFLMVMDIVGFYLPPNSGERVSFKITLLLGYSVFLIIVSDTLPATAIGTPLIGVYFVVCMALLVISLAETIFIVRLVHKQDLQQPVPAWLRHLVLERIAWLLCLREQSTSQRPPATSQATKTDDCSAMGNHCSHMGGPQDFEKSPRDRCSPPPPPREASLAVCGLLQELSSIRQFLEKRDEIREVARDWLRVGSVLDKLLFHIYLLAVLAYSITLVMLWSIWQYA

[4] = target: Histamine H3 receptor (Homo sapiens) (UniProt Q9Y5N1); details: Compound concentration 10.0 uM
Sequence of Histamine H3 receptor (Homo sapiens) (Q9Y5N1 whole entry): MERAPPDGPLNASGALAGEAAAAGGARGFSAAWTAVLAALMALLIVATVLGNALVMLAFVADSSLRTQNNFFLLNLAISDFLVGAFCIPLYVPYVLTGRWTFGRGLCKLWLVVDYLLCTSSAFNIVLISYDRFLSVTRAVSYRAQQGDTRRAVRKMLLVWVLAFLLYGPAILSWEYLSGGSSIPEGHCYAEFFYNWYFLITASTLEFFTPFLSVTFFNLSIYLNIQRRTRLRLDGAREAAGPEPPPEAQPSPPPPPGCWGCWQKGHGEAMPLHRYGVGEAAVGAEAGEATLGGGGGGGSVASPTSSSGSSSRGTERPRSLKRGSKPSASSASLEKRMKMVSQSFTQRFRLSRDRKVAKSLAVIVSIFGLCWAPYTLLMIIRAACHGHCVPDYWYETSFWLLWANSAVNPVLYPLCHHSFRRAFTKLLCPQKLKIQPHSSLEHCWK

[5] = target: 5-hydroxytryptamine receptor 1E (Homo sapiens) (UniProt P28566); details: Compound concentration 10.0 uM
[6] = target: Phosphatidylinositol 4-phosphate 3-kinase C2 domain-containing subunit beta (Homo sapiens) (UniProt O00750); details: Compound concentration 1000.0 nM
[7] = target: Serine/threonine-protein kinase Nek9 (Homo sapiens) (UniProt Q8TD19); details: Compound concentration 1000.0 nM
[8] = target: 1-phosphatidylinositol 3-phosphate 5-kinase (Homo sapiens) (UniProt Q9Y2I7); details: Compound concentration 1000.0 nM
[9] = target: Mitogen-activated protein kinase kinase kinase 7 (Homo sapiens) (UniProt O43318); details: Compound concentration 1000.0 nM
[10] = target: G protein-coupled receptor kinase 4 (Homo sapiens) (UniProt P32298); details: Compound concentration 1000.0 nM
[11] = target: Calcium/calmodulin-dependent protein kinase type II subunit gamma (Homo sapiens) (UniProt Q13555); details: Compound concentration 1000.0 nM
Sequence of Calcium/calmodulin-dependent protein kinase type II subunit gamma (Homo sapiens) (Q13555 whole entry): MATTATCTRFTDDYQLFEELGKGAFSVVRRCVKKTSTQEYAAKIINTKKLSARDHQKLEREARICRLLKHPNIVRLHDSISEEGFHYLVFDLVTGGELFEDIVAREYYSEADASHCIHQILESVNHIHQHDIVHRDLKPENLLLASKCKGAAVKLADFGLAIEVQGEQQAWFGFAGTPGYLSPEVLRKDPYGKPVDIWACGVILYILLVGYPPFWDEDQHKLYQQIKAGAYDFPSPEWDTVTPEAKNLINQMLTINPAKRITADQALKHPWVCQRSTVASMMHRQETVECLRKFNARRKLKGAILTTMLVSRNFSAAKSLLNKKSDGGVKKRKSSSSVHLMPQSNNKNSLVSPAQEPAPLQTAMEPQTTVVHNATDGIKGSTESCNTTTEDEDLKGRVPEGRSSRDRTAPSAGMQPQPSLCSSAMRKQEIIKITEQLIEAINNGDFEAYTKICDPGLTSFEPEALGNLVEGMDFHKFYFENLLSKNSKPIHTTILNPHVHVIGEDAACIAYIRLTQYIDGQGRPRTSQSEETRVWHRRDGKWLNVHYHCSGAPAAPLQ

[12] = test system: Tyrosine-protein kinase ABL1 (Homo sapiens), P00519 [Q252H]; details: Compound concentration 1000.0 nM
[13] = target: Cyclin-dependent kinase-like 1 (Homo sapiens) (UniProt Q00532); details: Compound concentration 1000.0 nM
[14] = target: Dual specificity tyrosine-phosphorylation-regulated kinase 1B (Homo sapiens) (UniProt Q9Y463); details: Compound concentration 1000.0 nM
[15] = target: Mitogen-activated protein kinase 7 (Homo sapiens) (UniProt Q13164); details: Compound concentration 1000.0 nM
Sequence of Mitogen-activated protein kinase 7 (Homo sapiens) (Q13164 2-816 limits assumed): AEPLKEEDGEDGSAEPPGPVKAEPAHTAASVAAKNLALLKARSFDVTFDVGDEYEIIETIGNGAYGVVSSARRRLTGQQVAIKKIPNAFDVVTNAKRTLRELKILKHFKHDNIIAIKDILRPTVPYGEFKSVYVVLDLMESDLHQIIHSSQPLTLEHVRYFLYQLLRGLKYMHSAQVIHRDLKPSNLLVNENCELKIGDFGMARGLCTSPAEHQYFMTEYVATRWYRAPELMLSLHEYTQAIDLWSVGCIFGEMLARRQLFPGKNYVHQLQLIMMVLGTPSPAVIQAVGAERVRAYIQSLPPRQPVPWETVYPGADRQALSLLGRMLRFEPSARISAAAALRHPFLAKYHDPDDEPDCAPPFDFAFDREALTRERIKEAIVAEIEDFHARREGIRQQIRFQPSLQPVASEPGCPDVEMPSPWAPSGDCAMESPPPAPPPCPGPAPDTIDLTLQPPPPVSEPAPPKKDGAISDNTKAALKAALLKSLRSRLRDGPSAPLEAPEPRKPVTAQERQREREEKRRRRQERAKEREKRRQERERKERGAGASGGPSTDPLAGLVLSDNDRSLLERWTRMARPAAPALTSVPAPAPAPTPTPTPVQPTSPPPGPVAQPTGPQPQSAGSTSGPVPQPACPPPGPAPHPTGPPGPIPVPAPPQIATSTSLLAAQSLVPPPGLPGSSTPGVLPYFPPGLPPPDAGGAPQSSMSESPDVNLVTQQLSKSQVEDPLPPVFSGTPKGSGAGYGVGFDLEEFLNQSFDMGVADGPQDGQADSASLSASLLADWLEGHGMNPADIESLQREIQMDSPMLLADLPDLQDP

[16] = test system: Fibroblast growth factor receptor 3 (Homo sapiens), P22607 [G697C]; details: Compound concentration 1000.0 nM
[17] = target: Cyclin-dependent kinase 11B (Homo sapiens) (UniProt P21127); details: Compound concentration 1000.0 nM
[18] = target: Serine/threonine-protein kinase Nek10 (Homo sapiens) (UniProt Q6ZWH5); details: Compound concentration 1000.0 nM
[19] = target: Serine/threonine-protein kinase Sgk2 (Homo sapiens) (UniProt Q9HBY8); details: Compound concentration 1000.0 nM
[20] = target: Leukocyte tyrosine kinase receptor (Homo sapiens) (UniProt P29376); details: Compound concentration 1000.0 nM
[21] = target: Sigma non-opioid intracellular receptor 1 (Homo sapiens, UniProt Q99720); details: Compound concentration 10.0 uM
[22] = target: Serine/threonine-protein kinase RIO2 (Homo sapiens) (UniProt Q9BVS4); details: Compound concentration 1000.0 nM
Sequence of Serine/threonine-protein kinase RIO2 (Homo sapiens) (Q9BVS4 whole entry, looked up): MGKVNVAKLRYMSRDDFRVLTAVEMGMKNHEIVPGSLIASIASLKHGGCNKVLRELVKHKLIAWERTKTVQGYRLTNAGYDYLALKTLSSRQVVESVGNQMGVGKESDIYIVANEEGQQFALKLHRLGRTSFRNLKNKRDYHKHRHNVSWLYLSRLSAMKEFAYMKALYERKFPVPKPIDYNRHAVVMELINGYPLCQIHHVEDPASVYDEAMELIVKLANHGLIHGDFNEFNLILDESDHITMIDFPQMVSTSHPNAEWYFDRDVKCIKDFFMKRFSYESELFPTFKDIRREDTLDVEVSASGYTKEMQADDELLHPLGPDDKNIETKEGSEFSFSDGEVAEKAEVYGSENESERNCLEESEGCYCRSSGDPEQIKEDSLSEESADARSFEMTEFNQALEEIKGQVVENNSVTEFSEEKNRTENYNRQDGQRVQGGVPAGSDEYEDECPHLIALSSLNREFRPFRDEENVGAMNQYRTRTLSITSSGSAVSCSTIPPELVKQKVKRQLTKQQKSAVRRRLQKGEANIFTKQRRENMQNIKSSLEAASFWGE

[23] = target: Histamine H2 receptor (Homo sapiens) (UniProt P25021); details: Compound concentration 10.0 uM
[24] = target: Serine/threonine-protein kinase 38 (Homo sapiens) (UniProt Q15208); details: Compound concentration 1000.0 nM
[25] = target: Receptor-type tyrosine-protein kinase FLT3 (Homo sapiens) (UniProt P36888); details: Compound concentration 1000.0 nM
Sequence of Receptor-type tyrosine-protein kinase FLT3 (Homo sapiens) (P36888 whole entry): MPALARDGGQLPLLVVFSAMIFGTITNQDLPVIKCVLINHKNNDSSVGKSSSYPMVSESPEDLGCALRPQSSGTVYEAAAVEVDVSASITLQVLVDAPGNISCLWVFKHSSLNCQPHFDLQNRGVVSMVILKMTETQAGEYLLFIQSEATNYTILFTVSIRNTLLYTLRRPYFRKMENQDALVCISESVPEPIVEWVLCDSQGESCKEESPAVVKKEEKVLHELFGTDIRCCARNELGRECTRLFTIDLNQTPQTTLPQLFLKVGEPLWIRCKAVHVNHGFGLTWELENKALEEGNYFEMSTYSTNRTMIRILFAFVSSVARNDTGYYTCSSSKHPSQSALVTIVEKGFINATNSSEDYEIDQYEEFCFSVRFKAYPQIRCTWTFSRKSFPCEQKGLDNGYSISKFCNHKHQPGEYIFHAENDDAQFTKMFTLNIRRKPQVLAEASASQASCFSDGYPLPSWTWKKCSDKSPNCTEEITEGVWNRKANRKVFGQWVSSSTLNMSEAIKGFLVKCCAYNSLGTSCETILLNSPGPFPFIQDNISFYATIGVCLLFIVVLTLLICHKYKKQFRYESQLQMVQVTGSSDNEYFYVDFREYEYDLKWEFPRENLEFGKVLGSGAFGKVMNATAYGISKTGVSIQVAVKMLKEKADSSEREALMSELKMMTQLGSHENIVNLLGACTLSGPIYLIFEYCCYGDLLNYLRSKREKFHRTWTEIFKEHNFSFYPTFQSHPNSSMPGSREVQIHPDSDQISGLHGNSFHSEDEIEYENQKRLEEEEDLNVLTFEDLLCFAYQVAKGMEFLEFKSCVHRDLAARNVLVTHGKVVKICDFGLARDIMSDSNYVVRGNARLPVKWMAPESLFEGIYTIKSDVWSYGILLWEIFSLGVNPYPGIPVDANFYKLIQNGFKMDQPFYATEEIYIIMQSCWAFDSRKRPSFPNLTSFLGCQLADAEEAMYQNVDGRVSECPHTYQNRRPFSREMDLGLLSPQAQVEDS

[26] = target: Serine/threonine-protein kinase Nek7 (Homo sapiens) (UniProt Q8TDX7); details: Compound concentration 1000.0 nM
[27] = target: Mitogen-activated protein kinase kinase kinase kinase 3 (Homo sapiens) (UniProt Q8IVH8); details: Compound concentration 1000.0 nM
[28] = target: Mitogen-activated protein kinase kinase kinase 9 (Homo sapiens) (UniProt P80192); details: Compound concentration 1000.0 nM
[29] = test system: Phosphatidylinositol 4,5-bisphosphate 3-kinase catalytic subunit alpha isoform (Homo sapiens), P42336 [E545K]; details: Compound concentration 1000.0 nM
[30] = target: Uncharacterized serine/threonine-protein kinase SBK3 (Homo sapiens) (UniProt P0C264); details: Compound concentration 1000.0 nM
[31] = target: RAC-beta serine/threonine-protein kinase (Homo sapiens) (UniProt P31751); details: Compound concentration 1000.0 nM
[32] = test system: Epidermal growth factor receptor (Homo sapiens), P00533 [UNDEFINED MUTATION]; details: Compound concentration 1000.0 nM
[33] = target: Serine/threonine-protein kinase LATS1 (Homo sapiens) (UniProt O95835); details: Compound concentration 1000.0 nM
Sequence of Serine/threonine-protein kinase LATS1 (Homo sapiens) (O95835 whole entry): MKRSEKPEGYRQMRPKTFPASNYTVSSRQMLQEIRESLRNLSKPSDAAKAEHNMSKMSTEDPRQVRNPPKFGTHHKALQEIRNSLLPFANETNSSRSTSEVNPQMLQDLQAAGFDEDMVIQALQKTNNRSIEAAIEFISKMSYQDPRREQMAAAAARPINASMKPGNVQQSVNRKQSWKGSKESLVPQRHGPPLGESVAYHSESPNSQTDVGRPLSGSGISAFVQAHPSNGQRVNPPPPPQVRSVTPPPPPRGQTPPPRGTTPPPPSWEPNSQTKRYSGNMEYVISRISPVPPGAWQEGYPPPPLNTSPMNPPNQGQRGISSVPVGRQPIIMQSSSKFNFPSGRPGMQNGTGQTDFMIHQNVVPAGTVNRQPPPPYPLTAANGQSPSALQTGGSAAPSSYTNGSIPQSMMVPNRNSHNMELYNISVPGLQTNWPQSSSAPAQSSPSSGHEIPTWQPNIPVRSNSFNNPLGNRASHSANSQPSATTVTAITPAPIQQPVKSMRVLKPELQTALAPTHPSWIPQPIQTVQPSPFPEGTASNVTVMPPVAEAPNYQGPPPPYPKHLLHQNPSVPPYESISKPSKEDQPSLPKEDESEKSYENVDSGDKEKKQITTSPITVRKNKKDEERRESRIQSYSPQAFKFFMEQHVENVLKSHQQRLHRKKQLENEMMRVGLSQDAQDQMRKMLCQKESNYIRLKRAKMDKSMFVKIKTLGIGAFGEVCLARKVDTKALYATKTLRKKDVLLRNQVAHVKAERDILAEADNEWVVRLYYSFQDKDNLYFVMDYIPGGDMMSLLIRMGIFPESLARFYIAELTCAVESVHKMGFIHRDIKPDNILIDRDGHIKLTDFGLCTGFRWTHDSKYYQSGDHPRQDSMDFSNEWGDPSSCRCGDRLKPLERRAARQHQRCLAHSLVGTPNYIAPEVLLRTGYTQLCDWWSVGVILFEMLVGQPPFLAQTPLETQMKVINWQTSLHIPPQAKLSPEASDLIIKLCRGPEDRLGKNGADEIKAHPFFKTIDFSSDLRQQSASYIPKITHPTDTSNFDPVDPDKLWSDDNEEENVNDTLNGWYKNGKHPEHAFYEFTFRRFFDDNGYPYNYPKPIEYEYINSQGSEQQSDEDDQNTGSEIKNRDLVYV

[34] = target: Rhodopsin kinase GRK7 (Homo sapiens) (UniProt Q8WTQ7); details: Compound concentration 1000.0 nM
Sequence of Rhodopsin kinase GRK7 (Homo sapiens) (Q8WTQ7 whole entry): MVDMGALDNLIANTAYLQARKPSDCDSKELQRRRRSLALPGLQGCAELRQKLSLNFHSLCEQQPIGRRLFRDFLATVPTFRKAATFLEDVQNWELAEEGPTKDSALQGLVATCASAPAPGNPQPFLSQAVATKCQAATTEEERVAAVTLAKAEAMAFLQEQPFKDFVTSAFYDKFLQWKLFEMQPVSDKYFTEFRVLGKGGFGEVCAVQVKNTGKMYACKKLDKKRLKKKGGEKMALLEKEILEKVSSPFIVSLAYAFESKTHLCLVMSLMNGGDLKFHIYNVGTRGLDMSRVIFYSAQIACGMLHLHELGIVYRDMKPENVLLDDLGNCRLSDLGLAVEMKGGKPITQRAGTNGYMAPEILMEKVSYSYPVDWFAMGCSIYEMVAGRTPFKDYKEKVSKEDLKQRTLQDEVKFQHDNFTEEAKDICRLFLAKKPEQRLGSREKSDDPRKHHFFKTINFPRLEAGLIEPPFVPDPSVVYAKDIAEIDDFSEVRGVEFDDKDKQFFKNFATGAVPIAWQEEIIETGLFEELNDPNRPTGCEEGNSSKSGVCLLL

[35] = target: Activin receptor type-1 (Homo sapiens) (UniProt Q04771); details: Compound concentration 1000.0 nM
[36] = target: MAP kinase-interacting serine/threonine-protein kinase 1 (Homo sapiens) (UniProt Q9BUB5); details: Compound concentration 1000.0 nM
[37] = target: Serine/threonine-protein kinase PLK1 (Homo sapiens) (UniProt P53350); details: Compound concentration 1000.0 nM
[38] = target: Ephrin type-B receptor 2 (Homo sapiens) (UniProt P29323); details: Compound concentration 1000.0 nM

CCCCN(CCCC)C(=O)CN1C[C@H](c2cc(OC)c3c(c2)OCO3)[C@@H](C(=O)O)[C@@H]1CC(C)(C)CCC [ABT-546]
residual activity [1]: 97.9%
residual activity [2]: 100%
inhibition [3]: 14.7%
inhibition [4]: -3.57%
inhibition [5]: 3.64%
residual activity [6]: 65.9%
residual activity [7]: 100%
residual activity [8]: 100%
residual activity [9]: 85.5%
residual activity [10]: 100%
residual activity [11]: 100%
residual activity [12]: 97.7%
residual activity [13]: 100%
residual activity [14]: 100%
residual activity [15]: 100%
residual activity [16]: 80.2%
residual activity [17]: 86.4%
residual activity [18]: 57.4%
residual activity [19]: 69.9%
residual activity [20]: 100%
inhibition [21]: 29.6%
residual activity [22]: 65.3%
inhibition [23]: 24.3%
residual activity [24]: 80.7%
residual activity [25]: 76%
residual activity [26]: 100%
residual activity [27]: 100%
residual activity [28]: 100%
residual activity [29]: 70%
residual activity [30]: 100%
residual activity [31]: 100%
residual activity [32]: 100%
residual activity [33]: 100%
residual activity [34]: 98.3%
residual activity [35]: 100%
residual activity [36]: 93.3%
residual activity [37]: 73.5%
residual activity [38]: 100%

CCCCN(CCCC)C(=O)CN1C[C@@H](c2cc(OC)c3c(c2)OCO3)[C@H](C(=O)O)[C@H]1CC(C)(C)CCC [A-545]
residual activity [1]: 100%
residual activity [2]: 100%
inhibition [3]: 2.23%
inhibition [4]: 17%
inhibition [5]: 27.1%
residual activity [6]: 73.6%
residual activity [7]: 84.2%
residual activity [8]: 81.4%
residual activity [9]: 84.7%
residual activity [10]: 95.8%
residual activity [11]: 94.3%
residual activity [12]: 94.6%
residual activity [13]: 74.9%
residual activity [14]: 95%
residual activity [15]: 100%
residual activity [16]: 94%
residual activity [17]: 100%
residual activity [18]: 100%
residual activity [19]: 78.5%
residual activity [20]: 94.1%
inhibition [21]: 93.6%
residual activity [22]: 83.2%
inhibition [23]: 8.46%
residual activity [24]: 95.2%
residual activity [25]: 97.4%
residual activity [26]: 86.6%
residual activity [27]: 94.1%
residual activity [28]: 98.8%
residual activity [29]: 91%
residual activity [30]: 100%
residual activity [31]: 100%
residual activity [32]: 70.3%
residual activity [33]: 75.2%
residual activity [34]: 90.8%
residual activity [35]: 100%
residual activity [36]: 100%
residual activity [37]: 100%
residual activity [38]: 73%
